Read-outs that look alike come from different tables or passages of the source.
Experiments:
Assay type in all cases: cell-based, human
[1] = system: p-ERK in NCI-H441 cells (KRAS G12V mutation); test: Cell p-ERK assay (HTRF) in NCI-H441 cells; conditions: NCI-H441 cells, 3 h compound incubation, HTRF p-ERK T202/Y204, read-out: H441 p-ERK IC50
Procedure, shortened: (§1)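 Seed 10000 AsPC-1 or 20000 NCI-H441 cells/well, overnight 37 °C/5% CO2. Cpd 3.16-fold series, 0.1% DMSO final, 3 h. Lyse 30 min, HTRF p-ERK (T202/Y204) Ab 4 h. IC50: 4-parameter fit of IR% normalised to DMSO and blank.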

[2] = system: p-ERK in AsPC-1 cells (KRAS G12D mutation); test: Cell p-ERK assay (HTRF) in AsPC-1 cells; conditions: AsPC-1 cells, 3 h compound incubation, HTRF p-ERK T202/Y204, read-out: AsPC-1 p-ERK IC50
Procedure, shortened: as §1

[3] = system: AsPC-1 cells (KRAS G12D mutation); test: 3D cell proliferation assay (CellTiter Glo-3D), AsPC-1; conditions: medium with 2% FBS, read-out: AsPC-1 AP IC50
Procedure, shortened: (§2)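 Cells were seeded at 800 per well in RPMI-1640 containing 2% FBS and left overnight. Compounds in 3.16-fold dilution series were then added at 0.1% DMSO and incubated 5 days at 37 °C. Viability was read by CellTiter-Glo 3D luminescence and IC50 values fitted by four-parameter regression.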

NCI-H441 cells = test: 3D cell proliferation assay (CellTiter Glo-3D), NCI-H441; conditions: medium with 2% FBS, read-out: H441 AP IC50
Procedure, shortened: as §2

[4] = 3D cell proliferation (CellTiter Glo-3D)
[5] = Homo sapiens, ASPC1, 3D cell proliferation (CellTiter Glo-3D)
[6] = Homo sapiens, NCI-H441, 3D cell proliferation (CellTiter Glo-3D)

Row | Structure (SMILES) | IC50 [1] [nM] | IC50 [2] [nM] | IC50 [3, 4] [nM] | IC50 (NCI-H441 cells; [4]) [nM] | IC50 ([1]; Homo sapiens, NCI-H441, 3 h) [nM] | IC50 ([2]; Homo sapiens, ASPC1, 3 h) [nM] | IC50 [3, 5] [nM] | IC50 (NCI-H441 cells; [6]) [nM]
1 | CCn1c(-c2cc(C#C[C@@H]3CCCN3C)cnc2[C@H](C)OC)c2c3cc(ccc31)-c1csc(n1)C[C@H](NC(=O)[C@H]1[C@H](C)[C@@H]1C)C(=O)N1CCC[C@H](N1)C(=O)OCC(C)(C)C2 (atropisomer, axis not shown; (Ra)) [Compound Z598, (1r,2R,3S)—N-((6^3S,4S,Z)—(Ra)-1^1-ethyl-12-(2-((S)-1-methoxyethyl)-5-(((S)-1-methylpyrrolidin-2-yl)ethynyl)pyridin-3-yl)-10,10-dimethyl-5,7-dioxo-6^1,6^2,6^3,6^4,6^5,6^6-hexahydro-1^1H-8-oxa-2(4,2)-thiazola-1(5,3)-indola-6(1,3)-pyridazinacycloundecaphane-4-yl)-2,3-dimethylcyclopropane-1-carboxamide] | 0.58 | 0.8 | 0.62 | 0.65 | – | – | – | –
2 | CCn1c(-c2cc(C#C[C@H]3CCCN3C)cnc2[C@H](C)OC)c2c3cc(ccc31)-c1csc(n1)C[C@H](NC(=O)[C@H]1[C@H](C)[C@@H]1C)C(=O)N1CCC[C@H](N1)C(=O)OCC(C)(C)C2 (atropisomer, axis not shown; (Ra)) [Compound Z599, (1r,2S,3R)—N-((6^3S,4S,Z)—(Ra)-1^2-(5-(((R)-1-methylpyrrolidin-2-yl)ethynyl)-2-((S)-1-methoxyethyl)pyridin-3-yl)-1^1-ethyl-10,10-dimethyl-5,7-dioxo-6^1,6^2,6^3,6^4,6^5,6^6-hexahydro-1^1H-8-oxa-2(4,2)-thiazola-1(5,3)-indola-6(1,3)-pyridazinacycloundecaphane-4-yl)-2,3-dimethylcyclopropane-1-carboxamide] | – | – | – | – | 0.7 | 1.05 | 2.15 | 1.17
3 | CCn1c(-c2cc(OCCN3CCS(=O)(=NC)CC3)cnc2[C@H](C)OC)c2c3cc(ccc31)-c1csc(n1)C[C@H](NC(=O)[C@H]1[C@H](C)[C@@H]1C)C(=O)N1CCC[C@H](N1)C(=O)OCC(C)(C)C2 (atropisomer, axis not shown; (Ra)) [Compound Z601, (1r,2R,3S)—N-((6^3S,4S,Z)-1^1-ethyl-1^2-(Ra)-(2-((S)-1-methoxyethyl)-5-(2-(1-(methylimino)-1-oxido-1λ^6-thiomorpholino)ethoxy)pyridin-3-yl)-10-10-dimethyl-5,7-dioxo-6^1,6^2,6^3,6^4,6^5,6^6-hexahydro-1^1H-8-oxa-2(4,2)-thiazola-1(5,3)-indola-6(1,3)-pyridazinacycloundecaphane-4-yl)-2,3-dimethylcyclopropane-1-carboxamide] | – | – | – | – | 0.62 | 0.49 | 0.58 | 0.36
4 | CO[C@@H](C)c1ncc(OCCN2CCS(=O)(=O)CC2)cc1-c1c2c3cc(ccc3n1C(C)C)-c1csc(n1)C[C@H](NC(=O)[C@H]1C[C@@H]1C)C(=O)N1CCC[C@H](N1)C(=O)OCC(C)(C)C2 (atropisomer, axis not shown; (Ra)) [Compound Z603, (1S,2S)—N-((6^3S,4S,Z)—(Ra)-1^2-(5-(2-(1,l-dioxidothiomorpholino)ethoxy)2-((S)-1-methoxyethyl)pyridin-3-yl)-1^1-isopropyl-10,10-dimethyl-5,7-dioxo-6^1,6^2,6^3,6^4,6^5,6^6-hexahydro-1^1H-8-oxa-2(4,2)-thiazola-1(5,3)-indola-6(1,3)-pyridazinacycloundecaphane-4-yl)-2-methylcyclopropane-1-carboxamide] | – | – | – | – | 0.22 | 0.6 | 0.89 | 0.31
5 | CC[C@H](C)C(=O)N[C@H]1Cc2nc(cs2)-c2ccc3c(c2)c(c(-c2cc(OCCN4CCS(=O)(=O)CC4)cnc2[C@H](C)OC)n3CC)CC(C)(C)COC(=O)[C@@H]2CCCN(N2)C1=O (atropisomer, axis not shown; (Ra)) [Compound Z609, (2S)—N-((6^3S,4S,Z)—(Ra)-1^2-(5-(2-(1,1-dioxidothiomorpholino)ethoxy)-2-((S)-1-methoxyethyl)pyridin-3-yl)-1^1-ethyl-10,10-dimethyl-5,7-dioxo-6^1,6^2,6^3,6^4,6^5,6^6-hexahydro-1^1H-8-oxa-2(4,2)-thiazola-1(5,3)-indola-6(1,3)-pyridazinacycloundecaphane-4-yl)-2-methylbutanamide] | – | – | – | – | 0.76 | 0.76 | 0.79 | 0.22
6 | CCn1c(-c2cc(C#C[C@]3(C)CCCN3C)cnc2[C@H](C)OC)c2c3cc(ccc31)-c1csc(n1)C[C@H](NC(=O)[C@H]1[C@H](C)[C@@H]1C)C(=O)N1CCC[C@H](N1)C(=O)OCC(C)(C)C2 (atropisomer, axis not shown; (Ra)) [Compound Z642] | – | – | – | – | 0.29 | 0.4 | 0.65 | 0.36

Now from value to molecule:

Row | IC50 [1] [nM] | IC50 [2] [nM] | IC50 [3, 4] [nM] | IC50 (NCI-H441 cells; [4]) [nM] | IC50 ([1]; Homo sapiens, NCI-H441, 3 h) [nM] | IC50 ([2]; Homo sapiens, ASPC1, 3 h) [nM] | IC50 [3, 5] [nM] | IC50 (NCI-H441 cells; [6]) [nM] | Structure (SMILES)
7 | 0.51 | – | – | 0.36 | – | 0.51 | 0.66 | – | CCn1c(-c2cc(OCCN3CC[S+]([O-])CC3)cnc2[C@H](C)OC)c2c3cc(ccc31)-c1csc(n1)C[C@H](NC(=O)[C@H]1[C@H](C)[C@@H]1C)C(=O)N1CCC[C@H](N1)C(=O)OCC(C)(C)C2 (atropisomer, axis not shown; (Ra)) [Compound Z600]
8 | 0.3 | 0.6 | 0.5 | 0.26 | – | – | – | – | CCn1c(-c2cc(OCCN3CCS(=O)(=O)CC3)cnc2[C@H](C)OC)c2c3cc(ccc31)-c1csc(n1)C[C@H](NC(=O)[C@H]1C[C@@H]1C)C(=O)N1CCC[C@H](N1)C(=O)OCC(C)(C)C2 (atropisomer, axis not shown; (Ra)) [Compound Z605]
9 | – | – | – | – | 0.57 | 0.71 | 1.37 | 0.32 | CC[C@@H](C)C(=O)N[C@H]1Cc2nc(cs2)-c2ccc3c(c2)c(c(-c2cc(OCCN4CCS(=O)(=O)CC4)cnc2[C@H](C)OC)n3CC)CC(C)(C)COC(=O)[C@@H]2CCCN(N2)C1=O (atropisomer, axis not shown; (Ra)) [Compound Z610, (2R)—N-((6^3S,4S,Z)—(Ra)-1^2-(5-(2-(1,1-dioxidothiomorpholino)ethoxy)-2-((S)-1-methoxyethyl)pyridin-3-yl)-1^1-ethyl-10,10-dimethyl-5,7-dioxo-6^1,6^2,6^3,6^4,6^5,6^6-hexahydro-1^1H-8-oxa-2(4,2)-thiazola-1(5,3)-indola-6(1,3)-pyridazinacycloundecaphane-4-yl)-2-methylbutanamide]
10 | – | – | – | – | 0.23 | 0.09 | 0.11 | 0.15 | CCn1c(-c2cc(OCC3(N4CCS(=O)(=O)CC4)CC3)cnc2[C@H](C)OC)c2c3cc(ccc31)-c1csc(n1)C[C@H](NC(=O)[C@H]1[C@H](C)[C@@H]1C)C(=O)N1CCC[C@H](N1)C(=O)OCC(C)(C)C2 (atropisomer, axis not shown; (Ra)) [Compound Z614, (1r,2R,3S)—N-((6^3S,4S,Z)-1^2-(5-((1-(1,1-dioxidothiomorpholino)cyclopropyl)methoxy)-2-((S)-1-methoxyethyl)pyridin-3-yl)-1^1-ethyl-(Ra)-10,10-dimethyl-5,7-dioxo-6^1,6^2,6^3,6^4,6^5,6^6-hexahydro-1^1hydrogen-8-oxa-2(4,2)-thiazola-1(5,3)-indola-6(1,3)-pyridazinacycloundecaphane-4-yl)-2,3-dimethylcyclopropane-1-carboxamide]
11 | – | – | – | – | 0.2 | 0.33 | 0.36 | 0.24 | CCn1c(-c2cc(C#CC(C)(C)N3CCCOCC3)cnc2[C@H](C)OC)c2c3cc(ccc31)-c1csc(n1)C[C@H](NC(=O)[C@H]1[C@H](C)[C@@H]1C)C(=O)N1CCC[C@H](N1)C(=O)OCC(C)(C)C2 (atropisomer, axis not shown; (Ra)) [Compound Z625, (1r,2R,3S)—N-((6S,4S,Z)-1^1-ethyl-(Ra)-1^2-(2-((S)-1-methoxyethyl)-5-(3-(1,4-oxazepan-4-yl)-3-methylbut-1-yn-1-yl)pyridin-3-yl)-10,10-dimethyl-5,7-dioxo-6^1,6^2,6^3,6^4,6^5,6^6hexahydro-1^1H-8-oxa-2(4,2)-thiazola-1(5,3)-indola-6(1,3)-pyridazinacycloundecaphane-4-yl)-2,3-dimethylcyclopropane-1-carboxamide]
12 | 0.35 | 0.31 | 0.62 | 0.34 | – | – | – | – | CCn1c(-c2cc(C#CC(C)(C)N3CCC(OC)CC3)cnc2[C@H](C)OC)c2c3cc(ccc31)-c1csc(n1)C[C@H](NC(=O)[C@H]1[C@H](C)[C@@H]1C)C(=O)N1CCC[C@H](N1)C(=O)OCC(C)(C)C2 (atropisomer, axis not shown; (Ra)) [Compound Z628-1, (1r,2R,3S)—N-((6^3S,4S,Z)-1^1-ethyl-(Ra)-1^2-(2-((S)-1-methoxyethyl)-5-(3-(4-methoxypiperidin-1-yl)-3-methylbut-1-yn-1-yl)pyridin-3-yl)-10,10-dimethyl-5,7-dioxo-6^1,6^2,6^3,6^4,6^5,6^6hexahydro-1^1H-8-oxa-2(4,2)-thiazola-1(5,3)-indola-6(1,3)-pyridazinacycloundecaphane-4-yl)-2,3-dimethylcyclopropane-1-carboxamide]

Reference: patent US20260234165A1, “MACROCYCLIC COMPOUNDS, PREPARATION METHOD THEREFOR, AND USE THEREOF” (GENFLEET THERAPEUTICS (SHANGHAI) INC., priority 2004, published 2026)
